Common to all, as to assay: Ambit kinase profiling, competition binding
One assay has as its target T1, TNNI3K (Homo sapiens, UniProt Q59H18).
T1 construct: purchased Ambit Biosciences (KINOMEscan)
T1 sequence (Q59H18 1-835): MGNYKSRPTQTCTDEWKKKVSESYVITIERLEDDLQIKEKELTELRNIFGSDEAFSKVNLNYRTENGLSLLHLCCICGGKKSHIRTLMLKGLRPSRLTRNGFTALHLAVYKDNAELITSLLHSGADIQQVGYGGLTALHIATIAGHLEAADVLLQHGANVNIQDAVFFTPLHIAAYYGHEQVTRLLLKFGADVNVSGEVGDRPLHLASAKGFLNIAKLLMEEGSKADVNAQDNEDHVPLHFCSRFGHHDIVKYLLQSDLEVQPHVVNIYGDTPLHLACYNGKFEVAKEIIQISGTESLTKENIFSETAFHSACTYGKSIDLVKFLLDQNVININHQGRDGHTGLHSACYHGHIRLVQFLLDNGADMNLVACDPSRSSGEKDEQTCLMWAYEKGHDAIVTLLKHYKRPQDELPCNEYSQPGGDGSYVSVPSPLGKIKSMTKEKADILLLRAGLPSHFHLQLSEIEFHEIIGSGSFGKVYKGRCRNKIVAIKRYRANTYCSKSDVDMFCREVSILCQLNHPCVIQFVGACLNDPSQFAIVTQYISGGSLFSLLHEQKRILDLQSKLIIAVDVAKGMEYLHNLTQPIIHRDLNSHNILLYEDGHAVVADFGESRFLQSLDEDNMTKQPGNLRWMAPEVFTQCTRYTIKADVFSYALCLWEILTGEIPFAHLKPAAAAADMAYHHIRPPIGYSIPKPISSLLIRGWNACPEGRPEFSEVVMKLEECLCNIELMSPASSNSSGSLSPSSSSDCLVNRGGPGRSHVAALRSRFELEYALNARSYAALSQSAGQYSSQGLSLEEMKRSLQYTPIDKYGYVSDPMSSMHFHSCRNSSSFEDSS
As to the method: (§1) Also included in the kinase profile are four isoforms of PKC (δ, ε, η, θ) and eight isoforms of CAMKs (CAMKIα, δ, γ; CAMKIIα, β, δ, γ; CAMK4).
(§2) The global kinase profiling experiment was performed by Ambit Biosciences.

The target of the next assay is T2, PHKG2 (Homo sapiens, UniProt P15735).
T2 construct: purchased Ambit Biosciences (KINOMEscan)
T2 sequence (P15735 1-406): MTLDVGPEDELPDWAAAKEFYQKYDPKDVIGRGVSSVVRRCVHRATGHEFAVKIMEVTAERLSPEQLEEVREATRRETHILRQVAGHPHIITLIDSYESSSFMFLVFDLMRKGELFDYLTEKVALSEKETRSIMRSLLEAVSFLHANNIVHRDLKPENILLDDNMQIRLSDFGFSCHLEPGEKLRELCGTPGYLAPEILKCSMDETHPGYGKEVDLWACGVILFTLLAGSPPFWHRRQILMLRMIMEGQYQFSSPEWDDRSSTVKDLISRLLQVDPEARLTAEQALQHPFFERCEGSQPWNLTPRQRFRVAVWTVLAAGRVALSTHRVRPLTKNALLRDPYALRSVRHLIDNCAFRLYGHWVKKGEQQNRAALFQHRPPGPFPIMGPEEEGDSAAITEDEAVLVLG
The procedure: as §1, §2

Another assay has as its target T3, CSNK1A1L (Homo sapiens, UniProt Q8N752).
T3 construct: purchased Ambit Biosciences (KINOMEscan)
T3 sequence (Q8N752 1-337): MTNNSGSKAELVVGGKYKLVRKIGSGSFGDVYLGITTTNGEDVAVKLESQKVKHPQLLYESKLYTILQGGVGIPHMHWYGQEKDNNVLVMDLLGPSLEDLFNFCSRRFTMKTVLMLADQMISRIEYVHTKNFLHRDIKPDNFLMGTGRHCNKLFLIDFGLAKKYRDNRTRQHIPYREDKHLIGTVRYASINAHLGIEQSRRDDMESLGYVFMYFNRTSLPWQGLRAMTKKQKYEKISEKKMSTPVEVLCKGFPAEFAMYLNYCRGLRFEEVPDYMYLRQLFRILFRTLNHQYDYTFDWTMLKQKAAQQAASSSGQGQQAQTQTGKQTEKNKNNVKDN
As to the method: as §1, §2

A further assay concerns the target T4, EPHA3 (Homo sapiens, UniProt P29320).
T4 construct: purchased Ambit Biosciences (KINOMEscan)
T4 sequence (P29320 21-983): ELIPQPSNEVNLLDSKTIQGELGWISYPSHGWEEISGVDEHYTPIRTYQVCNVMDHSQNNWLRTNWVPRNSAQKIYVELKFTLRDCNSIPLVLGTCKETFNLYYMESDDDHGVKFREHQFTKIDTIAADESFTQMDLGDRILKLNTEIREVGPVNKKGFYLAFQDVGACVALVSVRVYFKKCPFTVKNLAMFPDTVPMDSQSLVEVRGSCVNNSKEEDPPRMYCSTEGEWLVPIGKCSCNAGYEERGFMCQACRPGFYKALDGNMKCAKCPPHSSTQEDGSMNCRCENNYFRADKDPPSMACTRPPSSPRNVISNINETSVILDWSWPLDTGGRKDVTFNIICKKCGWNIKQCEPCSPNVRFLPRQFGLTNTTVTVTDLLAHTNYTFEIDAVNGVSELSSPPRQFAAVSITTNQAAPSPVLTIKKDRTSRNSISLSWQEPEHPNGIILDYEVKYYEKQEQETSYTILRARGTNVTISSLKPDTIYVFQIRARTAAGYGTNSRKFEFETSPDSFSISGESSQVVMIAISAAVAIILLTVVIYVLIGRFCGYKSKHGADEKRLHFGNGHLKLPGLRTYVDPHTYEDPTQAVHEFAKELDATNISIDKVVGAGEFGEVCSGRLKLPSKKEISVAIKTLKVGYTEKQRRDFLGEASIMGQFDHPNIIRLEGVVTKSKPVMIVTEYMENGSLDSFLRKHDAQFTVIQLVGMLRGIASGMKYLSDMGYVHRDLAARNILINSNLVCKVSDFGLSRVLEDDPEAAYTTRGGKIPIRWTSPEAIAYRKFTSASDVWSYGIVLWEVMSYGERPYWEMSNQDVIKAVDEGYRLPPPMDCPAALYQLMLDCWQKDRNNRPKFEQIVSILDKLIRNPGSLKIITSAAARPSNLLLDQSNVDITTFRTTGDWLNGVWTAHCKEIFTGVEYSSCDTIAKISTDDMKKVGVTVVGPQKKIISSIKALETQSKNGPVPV
The procedure:
as §1, §2

Another assay has as its target T5, ERBB4 (Homo sapiens, UniProt Q15303).
T5 construct: purchased Ambit Biosciences (KINOMEscan)
The procedure: as §1, §2

For a further assay, the target named is T6, EGFR(E746-A750del) (Homo sapiens, UniProt P00533, DEL746-750).
T6 construct: purchased Ambit Biosciences (KINOMEscan)
The conditions noted are these: for % Competition: 10 µM. The procedure:
as §1, §2

The next assay deals with T7, MAP4K4 (Homo sapiens, UniProt O95819).
T7 construct: purchased Ambit Biosciences (KINOMEscan)
T7 sequence (O95819 whole entry): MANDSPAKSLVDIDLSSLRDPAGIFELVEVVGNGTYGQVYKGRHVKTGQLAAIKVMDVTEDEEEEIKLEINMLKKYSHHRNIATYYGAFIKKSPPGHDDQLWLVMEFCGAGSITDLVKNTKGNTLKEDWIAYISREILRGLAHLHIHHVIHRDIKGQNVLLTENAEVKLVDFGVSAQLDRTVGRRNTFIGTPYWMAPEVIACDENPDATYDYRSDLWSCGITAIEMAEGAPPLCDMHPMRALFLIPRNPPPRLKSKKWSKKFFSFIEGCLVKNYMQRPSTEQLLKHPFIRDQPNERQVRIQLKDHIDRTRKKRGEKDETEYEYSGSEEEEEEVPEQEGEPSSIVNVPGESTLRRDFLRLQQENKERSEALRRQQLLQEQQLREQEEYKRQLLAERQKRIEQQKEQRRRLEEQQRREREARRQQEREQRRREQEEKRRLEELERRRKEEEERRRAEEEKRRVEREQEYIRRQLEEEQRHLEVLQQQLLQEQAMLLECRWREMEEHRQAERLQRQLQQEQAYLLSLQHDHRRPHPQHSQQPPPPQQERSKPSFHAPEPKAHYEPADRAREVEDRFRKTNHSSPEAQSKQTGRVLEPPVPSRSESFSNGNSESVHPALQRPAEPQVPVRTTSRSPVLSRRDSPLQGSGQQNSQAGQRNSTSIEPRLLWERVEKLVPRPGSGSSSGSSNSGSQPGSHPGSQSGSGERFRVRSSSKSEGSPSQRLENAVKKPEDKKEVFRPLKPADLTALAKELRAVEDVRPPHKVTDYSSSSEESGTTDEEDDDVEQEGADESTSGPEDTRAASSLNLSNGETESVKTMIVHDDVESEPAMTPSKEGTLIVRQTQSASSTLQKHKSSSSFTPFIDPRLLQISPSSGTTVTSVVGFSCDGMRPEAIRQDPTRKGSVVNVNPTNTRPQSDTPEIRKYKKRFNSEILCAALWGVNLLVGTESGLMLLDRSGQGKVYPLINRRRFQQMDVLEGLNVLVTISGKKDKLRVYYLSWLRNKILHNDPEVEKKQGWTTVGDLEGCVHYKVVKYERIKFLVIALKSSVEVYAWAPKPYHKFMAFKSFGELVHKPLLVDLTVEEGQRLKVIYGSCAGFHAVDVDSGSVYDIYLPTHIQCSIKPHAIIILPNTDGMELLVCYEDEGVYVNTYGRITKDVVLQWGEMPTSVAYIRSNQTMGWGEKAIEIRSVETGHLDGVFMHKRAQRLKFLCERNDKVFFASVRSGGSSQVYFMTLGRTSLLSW
As to the method:
as §1, §2

The structures appear in SMILES notation. Read-outs that look alike come from different tables or passages of the source.

T5 sequence (Q15303 26-1308): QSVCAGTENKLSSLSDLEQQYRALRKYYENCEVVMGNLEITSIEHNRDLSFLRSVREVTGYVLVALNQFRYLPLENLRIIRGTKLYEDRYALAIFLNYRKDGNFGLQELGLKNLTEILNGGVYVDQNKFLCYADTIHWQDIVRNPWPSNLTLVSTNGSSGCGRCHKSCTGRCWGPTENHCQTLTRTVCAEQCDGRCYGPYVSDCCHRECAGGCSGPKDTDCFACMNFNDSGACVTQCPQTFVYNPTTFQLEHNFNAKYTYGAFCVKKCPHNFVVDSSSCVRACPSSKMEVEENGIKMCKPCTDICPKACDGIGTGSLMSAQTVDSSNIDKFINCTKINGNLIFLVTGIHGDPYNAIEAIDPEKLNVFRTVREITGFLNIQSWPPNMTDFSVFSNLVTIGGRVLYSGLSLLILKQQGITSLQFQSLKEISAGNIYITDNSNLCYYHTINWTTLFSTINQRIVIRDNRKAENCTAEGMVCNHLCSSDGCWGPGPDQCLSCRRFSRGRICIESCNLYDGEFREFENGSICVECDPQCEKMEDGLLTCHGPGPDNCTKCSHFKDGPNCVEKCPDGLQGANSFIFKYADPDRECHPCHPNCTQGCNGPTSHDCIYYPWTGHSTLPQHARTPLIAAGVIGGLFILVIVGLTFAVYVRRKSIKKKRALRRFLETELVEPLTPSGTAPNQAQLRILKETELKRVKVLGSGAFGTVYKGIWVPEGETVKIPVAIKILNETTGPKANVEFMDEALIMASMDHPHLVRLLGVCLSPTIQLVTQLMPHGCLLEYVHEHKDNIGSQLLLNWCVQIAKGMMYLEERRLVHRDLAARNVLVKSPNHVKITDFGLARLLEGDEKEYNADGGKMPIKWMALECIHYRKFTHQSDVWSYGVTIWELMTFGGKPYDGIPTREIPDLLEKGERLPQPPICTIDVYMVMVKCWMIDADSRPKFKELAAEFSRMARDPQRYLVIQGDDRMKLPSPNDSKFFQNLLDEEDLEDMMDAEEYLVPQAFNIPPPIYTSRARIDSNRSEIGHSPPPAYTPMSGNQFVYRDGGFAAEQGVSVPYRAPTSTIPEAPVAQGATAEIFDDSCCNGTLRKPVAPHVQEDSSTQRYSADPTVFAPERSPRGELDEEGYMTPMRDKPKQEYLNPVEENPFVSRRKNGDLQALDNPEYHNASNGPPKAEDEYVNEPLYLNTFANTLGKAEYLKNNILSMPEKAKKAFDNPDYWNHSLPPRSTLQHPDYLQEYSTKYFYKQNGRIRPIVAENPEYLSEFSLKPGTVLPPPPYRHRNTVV

For the compound `Fc1ccc(-c2c(-c3ccncc3)[nH]c3nccnc23)cc1` [Compound 122], the inhibition at 10 µM at TNNI3K (TNNI3K, 10 µM, read-out: % Competition) is 67%; on PHKG2 (PHKG2, 10 µM, read-out: % Competition), 91%; on CSNK1A1L (CSNK1A1L, 10 µM, read-out: % Competition), 95%; on EPHA3 (EPHA3, 10 µM, read-out: % Competition) it was 85%; at ERBB4 (ERBB4, 10 µM, read-out: % Competition), 80%; at MAP4K4 (MAP4K4, 10 µM, read-out: % Competition), 84%. In addition, the “% Competition” value at EGFR(E746-A750del) worked out at 96%.

In the case of `Fc1ccc(-c2c(-c3ccncc3)[nH]c3nccnc23)cc1` [RO1155697-000-005], the inhibition at 10 µM at TNNI3K (TNNI3K, compound concentration 10 uM, read-out: Percent Competition) was found to be 67%; on PHKG2 (PHKG2, compound concentration 10 uM, read-out: Percent Competition) it was 91%; at CSNK1A1L (CSNK1A1L, compound concentration 10 uM, read-out: Percent Competition) it was 95%; on EPHA3 (EPHA3, compound concentration 10 uM, read-out: Percent Competition) it was 85%; on ERBB4 (ERBB4, compound concentration 10 uM, read-out: Percent Competition), 80%; on MAP4K4 (MAP4K4, compound concentration 10 uM, read-out: Percent Competition), 84%. Further, the “Percent Competition” value at EGFR(E746-A750del) (compound concentration 10 uM) came to 96%.

Regarding `CC(O)CNc1cc(-c2[nH]c3cccnc3c2-c2ccc(F)cc2)ccn1` (stereo not drawn) [Compound 140], the inhibition at 10 µM at TNNI3K (read-out: % Competition) was below 50%; on PHKG2 (read-out: % Competition), below 50%; at CSNK1A1L (read-out: % Competition), 86%; on EPHA3 (read-out: % Competition) it was below 50%; at ERBB4 (read-out: % Competition), below 50%; on MAP4K4 (read-out: % Competition), below 50%. Also, at EGFR(E746-A750del), the “% Competition” value stood at 90%.
